The text below walks through data of patent US20230048132A1, “CYCLIN-DEPENDENT KINASE INHIBITORS” (SPV THERAPEUTICS INC., priority 2018, published 2023).

In one test the target is T1, CDK6-CYCLIND3 (Homo sapiens, UniProt Q00534).
T1 construct: purchased Carna
The test can be described thus: CDK inhibition assay (microfluidic LabChip, IC50 format). The test is classed as biochemical. The note with it: Table 4b, upper part; read-out: CDK6 IC50.

Another test addresses CDK4-CYCLIND1 (Homo sapiens, UniProt P11802). The description is as above. The note with it: CDK4 IC50, Table 4b, upper part.

Chain of CDK4-CYCLIND1 (P11802 whole entry): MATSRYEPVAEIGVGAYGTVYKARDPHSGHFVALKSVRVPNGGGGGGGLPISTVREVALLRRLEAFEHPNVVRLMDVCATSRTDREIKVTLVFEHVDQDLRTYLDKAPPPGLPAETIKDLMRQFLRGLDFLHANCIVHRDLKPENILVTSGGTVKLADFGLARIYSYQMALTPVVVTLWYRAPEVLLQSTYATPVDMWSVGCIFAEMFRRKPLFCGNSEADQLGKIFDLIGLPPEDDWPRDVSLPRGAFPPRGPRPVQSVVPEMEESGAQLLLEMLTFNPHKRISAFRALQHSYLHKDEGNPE
Chain of CDK4-CYCLIND1 (P24385 whole entry partner): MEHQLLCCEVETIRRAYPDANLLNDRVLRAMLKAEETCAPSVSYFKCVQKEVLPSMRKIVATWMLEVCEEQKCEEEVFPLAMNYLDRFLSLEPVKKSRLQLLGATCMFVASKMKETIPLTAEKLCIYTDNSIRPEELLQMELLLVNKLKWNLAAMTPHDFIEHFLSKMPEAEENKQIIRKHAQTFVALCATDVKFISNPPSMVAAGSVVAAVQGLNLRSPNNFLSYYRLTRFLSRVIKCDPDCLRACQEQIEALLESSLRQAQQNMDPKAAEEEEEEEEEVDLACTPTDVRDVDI
T1 sequence (Q00534 whole entry): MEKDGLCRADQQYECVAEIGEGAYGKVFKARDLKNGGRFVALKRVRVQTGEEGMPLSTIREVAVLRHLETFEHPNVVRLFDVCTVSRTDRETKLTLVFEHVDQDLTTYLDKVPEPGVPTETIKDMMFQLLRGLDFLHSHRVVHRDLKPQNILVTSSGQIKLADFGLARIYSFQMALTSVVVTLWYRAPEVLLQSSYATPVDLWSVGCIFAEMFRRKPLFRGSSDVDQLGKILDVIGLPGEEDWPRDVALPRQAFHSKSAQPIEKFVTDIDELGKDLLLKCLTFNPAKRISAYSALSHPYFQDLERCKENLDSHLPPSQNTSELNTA
T1 sequence (P30281 whole entry partner): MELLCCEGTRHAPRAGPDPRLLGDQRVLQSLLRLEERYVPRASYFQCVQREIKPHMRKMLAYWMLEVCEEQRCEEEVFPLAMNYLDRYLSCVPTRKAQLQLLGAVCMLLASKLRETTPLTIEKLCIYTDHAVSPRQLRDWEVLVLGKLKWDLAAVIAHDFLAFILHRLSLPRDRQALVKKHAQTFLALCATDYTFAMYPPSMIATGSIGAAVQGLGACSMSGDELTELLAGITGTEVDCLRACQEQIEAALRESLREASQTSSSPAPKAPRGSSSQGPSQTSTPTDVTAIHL
Protocol for CDK4-CYCLIND1: Inhibition assays were performed using microfluidic LabChip 300 Drug Discovery System from Caliper Life Sciences. […] The assay has a total volume of 10 μL consisting of 5 μL of enzyme and buffer and 5 μL of substrate and buffer. The test compounds were diluted in 100% dimethylsulfoxide (DMSO) using 3-fold dilution steps. […] Compounds were tested in a single well for each dilution and the final concentration of DMSO was maintained at 1%.
The assay buffer contained 100 mM HEPES, pH 7.5, 0.01% Triton X-100, 0.1% bovine serum albumin (BSA), 5 mM MgCl2; 1 mM dithiothreitol (DTT), 10 μM sodium orthovanadate, and 10 μM β-glycerophosphate.
The assay was conducted by adding 5 μL of enzyme, adenosine triphosphate (ATP) and buffer to an assay plate. A 100 nL aliquot of the diluted compounds were added to the plate. The assay was initiated by the addition of 5 μL of phosphoenolpyruvate substrate (PEP) in buffer. […] The reaction was terminated by the addition of EDTA. The plates were analyzed using a Caliper LabChip 3000.
Additional inhibition assays were performed as described above.
The assays were conducted as described above for the racemates.

With `CN1C(=O)CC2(Cc3cnc(Nc4ccc(N5CCNCC5)nc4)nc3N(C3CCCC3)C2=O)C1=O` (centres unmarked) [Example D24, 8-cyclopentyl-1′-methyl-2-((6-(piperazin-1-yl)pyridin-3-yl)amino)-5,8-dihydro-7H-spiro[pyrido[2,3-d]pyrimidine-6,3′-pyrrolidine]-2′,5′,7-trione], the IC50 came to 373 nM on CDK6-CYCLIND3 and 127 nM against CDK4-CYCLIND1.

With `CN1CCN(c2ccc(Nc3ncc4c(n3)N(C3CCCC3)C(=O)C3(CC(=O)N(C)C3=O)C4)cn2)CC1` (centres unmarked) [Example D25, 8-cyclopentyl-1′-methyl-2-((6-(4-methylpiperazin-1-yl)pyridin-3-yl)amino)-5,8-dihydro-7H-spiro[pyrido[2,3-d]pyrimidine-6,3′-pyrrolidine]-2′,5′,7-trione], the IC50 on CDK6-CYCLIND3 came to 455 nM; on CDK4-CYCLIND1 it was 135 nM.

As to `CC(C)N1CCN(c2ccc(Nc3ncc4c(n3)N(C3CCCC3)C(=O)C3(CC(=O)N(C)C3=O)C4)cn2)CC1` (centres unmarked) [Example D26, 8-cyclopentyl-2-((6-(4-isopropylpiperazin-1-yl)pyridin-3-yl)amino)-1′-methyl-5,8-dihydro-7H-spiro[pyrido[2,3-d]pyrimidine-6,3′-pyrrolidine]-2′,5′,7-trione], the values for the IC50 on CDK6-CYCLIND3 and against CDK4-CYCLIND1 were 311 nM and 105 nM, respectively.

In the case of `CN1C(=O)CC2(Cc3cnc(Nc4ccc(N5CCNCC5)c(F)c4)nc3N(C3CCCC3)C2=O)C1=O` (centres unmarked) [Example D27, 8-cyclopentyl-2-((3-fluoro-4-(piperazin-1-yl)phenyl)amino)-1′-methyl-5,8-dihydro-7H-spiro[pyrido[2,3-d]pyrimidine-6,3′-pyrrolidine]-2′,5′,7-trione], the IC50 on CDK6-CYCLIND3 was determined as 141 nM; at CDK4-CYCLIND1, 34.8 nM.

Take `CN(C)CCOc1ccc(Nc2ncc3c(n2)N(C2CCCC2)C(=O)C2(CC(=O)N(C)C2=O)C3)cc1` (centres unmarked) [Example D28, 8-cyclopentyl-2-((4-(2-(dimethylamino)ethoxy)phenyl)amino)-1′-methyl-5,8-dihydro-7H-spiro[pyrido[2,3-d]pyrimidine-6,3′-pyrrolidine]-2′,5′,7-trione]: the IC50 came out at 491 nM at CDK6-CYCLIND3 and 155 nM at CDK4-CYCLIND1.

As to `CN(C)CCOc1ccc(Nc2ncc3c(n2)N(C2CCCC2)C(=O)C2(CC(=O)N(C)C2=O)C3)cn1` (centres unmarked) [Example D29, 8-cyclopentyl-2-((6-(2-(dimethylamino)ethoxy)pyridin-3-yl)amino)-1′-methyl-5,8-dihydro-7H-spiro[pyrido[2,3-d]pyrimidine-6,3′-pyrrolidine]-2′,5′,7-trione], the IC50 came out at 1050 nM on CDK6-CYCLIND3 and 367 nM against CDK4-CYCLIND1.

Turning to `CN1C(=O)CC2(Cc3cnc(Nc4ccc(OCCN5CCCC5)c(F)c4)nc3N(C3CCCC3)C2=O)C1=O` (centres unmarked) [Example D30, 8-cyclopentyl-2-((3-fluoro-4-(2-(pyrrolidin-1-yl)ethoxy)phenyl)amino)-1′-methyl-5,8-dihydro-7H-spiro[pyrido[2,3-d]pyrimidine-6,3′-pyrrolidine]-2′,5′,7-trione], the IC50 at CDK6-CYCLIND3 came out at 1450 nM; on CDK4-CYCLIND1, 472 nM.

As to `CN1C(=O)CC2(Cc3cnc(Nc4ccc(OCCN5CCCC5)nc4)nc3N(C3CCCC3)C2=O)C1=O` (centres unmarked) [Example D31, 8-cyclopentyl-1′-methyl-2-((6-(2-(pyrrolidin-1-yl)ethoxy)pyridin-3-yl)amino)-5,8-dihydro-7H-spiro[pyrido[2,3-d]pyrimidine-6,3′-pyrrolidine]-2′,5′,7-trione], the IC50 on CDK6-CYCLIND3 amounted to 628 nM; against CDK4-CYCLIND1, 185 nM.

On to `O=C1NCCC12Cc1cnc(Nc3ccc(N4CCNCC4)cc3F)nc1N(C1CCCC1)C2=O` (centres unmarked) [Example D32, 8-cyclopentyl-2-((2-fluoro-4-(piperazin-1-yl)phenyl)amino)-5,8-dihydro-7H-spiro[pyrido[2,3-d]pyrimidine-6,3′-pyrrolidine]-2′,7-dione], for which the results for the IC50 on CDK6-CYCLIND3 and against CDK4-CYCLIND1 were 11.2 nM and 5.16 nM, respectively.

For `CC(C)N1CCN(c2ccc(Nc3ncc4c(n3)N(C3CCCC3)C(=O)C3(CCNC3=O)C4)c(F)c2)CC1` (centres unmarked) [Example D33, 8-cyclopentyl-2-((2-fluoro-4-(4-isopropylpiperazin-1-yl)phenyl)amino)-5,8-dihydro-7H-spiro[pyrido[2,3-d]pyrimidine-6,3′-pyrrolidine]-2′,7-dione], the IC50 turned out to be 22600 nM at CDK6-CYCLIND3 and 9340 nM against CDK4-CYCLIND1.

Take `O=C1NCCC12Cc1cnc(Nc3ccc(OCCN4CCCCC4)cn3)nc1N(C1CCCC1)C2=O` (centres unmarked) [Example D34, 8-cyclopentyl-2-((5-(2-(piperidin-1-yl)ethoxy)pyridin-2-yl)amino)-5,8-dihydro-7H-spiro[pyrido[2,3-d]pyrimidine-6,3′-pyrrolidine]-2′,7-dione]: the IC50 at CDK6-CYCLIND3 was found to be 56.5 nM; on CDK4-CYCLIND1, 44.6 nM.

On to `O=C1NCCC12Cc1cnc(Nc3ccc(OCCN4CCCCC4)nc3)nc1N(C1CCCC1)C2=O` (centres unmarked) [Example D35], for which the figures for the IC50 on CDK6-CYCLIND3 and against CDK4-CYCLIND1 were 14.4 nM and 7.01 nM, respectively.

For the compound `Cc1cc(Nc2ncc3c(n2)N(C2CCCC2)C(=O)C2(CCNC2=O)C3)ccc1N1CCN(C(C)C)CC1` (centres unmarked) [Example D36, 8-cyclopentyl-2-((4-(4-isopropylpiperazin-1-yl)-3-methylphenyl)amino)-5,8-dihydro-7H-spiro[pyrido[2,3-d]pyrimidine-6,3′-pyrrolidine]-2′,7-dione], the IC50 on CDK6-CYCLIND3 was 4.53 nM; against CDK4-CYCLIND1, 1.96 nM.

Consider `COc1cc(Nc2ncc3c(n2)N(C2CCCC2)C(=O)C2(CCNC2=O)C3)ccc1N1CCN(C(C)C)CC1` (centres unmarked) [Example D37, 8-cyclopentyl-2-((4-(4-isopropylpiperazin-1-yl)-3-methoxyphenyl)amino)-5,8-dihydro-7H-spiro[pyrido[2,3-d]pyrimidine-6,3′-pyrrolidine]-2′,7-dione], for which the IC50 is 8.12 nM at CDK6-CYCLIND3 and 3.18 nM on CDK4-CYCLIND1.

In the case of `O=C1NCCC12Cc1cnc(Nc3ccc(N4CCC(N5CCOCC5)CC4)c(F)c3)nc1N(C1CCCC1)C2=O` (centres unmarked) [Example D38, 8-cyclopentyl-2-((3-fluoro-4-(4-morpholinopiperidin-1-yl)phenyl)amino)-5,8-dihydro-7H-spiro[pyrido[2,3-d]pyrimidine-6,3′-pyrrolidine]-2′,7-dione], the IC50 at CDK6-CYCLIND3 is 7.1 nM; against CDK4-CYCLIND1, 3.87 nM.

Consider `O=C1NCCC12Cc1cnc(Nc3ccc(N4CCC(N5CCOCC5)CC4)cn3)nc1N(C1CCCC1)C2=O` (centres unmarked) [Example D39, 8-cyclopentyl-2-((5-(4-morpholinopiperidin-1-yl)pyridin-2-yl)amino)-5,8-dihydro-7H-spiro[pyrido[2,3-d]pyrimidine-6,3′-pyrrolidine]-2′,7-dione], for which the IC50 is 13.3 nM on CDK6-CYCLIND3 and 7.29 nM on CDK4-CYCLIND1.

Turning to `O=C1NCCC12Cc1cnc(Nc3ccc(N4CC5(CNC5)C4)cc3)nc1N(C1CCCC1)C2=O` (centres unmarked) [Example D40, 2-((4-(2,6-diazaspiro[3.3]heptan-2-yl)phenyl)amino)-8-cyclopentyl-5,8-dihydro-7H-spiro[pyrido[2,3-d]pyrimidine-6,3′-pyrrolidine]-2′,7-dione], the half-maximal inhibitory concentration (IC50) at CDK6-CYCLIND3 came out at 4.93 nM; against CDK4-CYCLIND1, 2.12 nM.

`O=C1NCCC12Cc1cnc(Nc3ccc(N4CC5(CNC5)C4)cn3)nc1N(C1CCCC1)C2=O` (centres unmarked) [Example D41, 2-((5-(2,6-diazaspiro[3.3]heptan-2-yl)pyridin-2-yl)amino)-8-cyclopentyl-5,8-dihydro-7H-spiro[pyrido[2,3-d]pyrimidine-6,3′-pyrrolidine]-2′,7-dione]: the results for the IC50 at CDK6-CYCLIND3 and on CDK4-CYCLIND1 were 8.79 nM and 4.61 nM, respectively.

On to `O=C1NCCC12Cc1cnc(Nc3ccc(N4CC5(CNC5)C4)nc3)nc1N(C1CCCC1)C2=O` (centres unmarked) [Example D42, 2-((6-(2,6-diazaspiro[3.3]heptan-2-yl)pyridin-3-yl)amino)-8-cyclopentyl-5,8-dihydro-7H-spiro[pyrido[2,3-d]pyrimidine-6,3′-pyrrolidine]-2′,7-dione], for which the values for the IC50 at CDK6-CYCLIND3 and at CDK4-CYCLIND1 were 6.19 nM and 2.72 nM, respectively.

Turning to `O=C1NCCC12Cc1cnc(Nc3ccc(N4CC5(CNC5)C4)c(F)c3)nc1N(C1CCCC1)C2=O` (centres unmarked) [Example D43], the IC50 at CDK6-CYCLIND3 worked out at 4.95 nM; against CDK4-CYCLIND1, 2.42 nM.

For the compound `CN(C)[C@H]1CCN(c2ccc(Nc3ncc4c(n3)N(C3CCCC3)C(=O)C3(CCNC3=O)C4)cc2)C1` (stereo partly drawn) [Example D44, 8-cyclopentyl-2-((4-((S)-3-(dimethylamino)pyrrolidin-1-yl)phenyl)amino)-5,8-dihydro-7H-spiro[pyrido[2,3-d]pyrimidine-6,3′-pyrrolidine]-2′,7-dione], the IC50 stood at 24.6 nM on CDK6-CYCLIND3 and 12 nM at CDK4-CYCLIND1.

Regarding `CN(C)[C@H]1CCN(c2ccc(Nc3ncc4c(n3)N(C3CCCC3)C(=O)C3(CCNC3=O)C4)cc2F)C1` (stereo partly drawn) [Example D45, 8-cyclopentyl-2-((4-((S)-3-(dimethylamino)pyrrolidin-1-yl)-3-fluorophenyl)amino)-5,8-dihydro-7H-spiro[pyrido[2,3-d]pyrimidine-6,3′-pyrrolidine]-2′,7-dione], the IC50 on CDK6-CYCLIND3 worked out at 5.46 nM; at CDK4-CYCLIND1 it was 2.68 nM.

As to `CN(C)[C@H]1CCN(C(=O)c2ccc(Nc3ncc4c(n3)N(C3CCCC3)C(=O)C3(CCNC3=O)C4)cc2)C1` (stereo partly drawn) [Example D46, 8-cyclopentyl-2-((4-((S)-3-(dimethylamino)pyrrolidine-1-carbonyl)phenyl)amino)-5,8-dihydro-7H-spiro[pyrido[2,3-d]pyrimidine-6,3′-pyrrolidine]-2′,7-dione], the IC50 on CDK6-CYCLIND3 was 8.36 nM; against CDK4-CYCLIND1, 3.23 nM.

On to `CN(C)[C@H]1CCN(C(=O)c2ccc(Nc3ncc4c(n3)N(C3CCCC3)C(=O)C3(CCNC3=O)C4)cn2)C1` (stereo partly drawn) [Example D47, 8-cyclopentyl-2-((6-((S)-3-(dimethylamino)pyrrolidine-1-carbonyl)pyridin-3-yl)amino)-5,8-dihydro-7H-spiro[pyrido[2,3-d]pyrimidine-6,3′-pyrrolidine]-2′,7-dione], for which the IC50 stood at 10.6 nM on CDK6-CYCLIND3 and 3.37 nM against CDK4-CYCLIND1.

Take `CN(C)[C@H]1CCN(C(=O)c2ccc(Nc3ncc4c(n3)N(C3CCCC3)C(=O)C3(CCNC3=O)C4)cc2F)C1` (stereo partly drawn) [Example D48, 8-cyclopentyl-2-((4-((S)-3-(dimethylamino)pyrrolidine-1-carbonyl)-3-fluorophenyl)amino)-5,8-dihydro-7H-spiro[pyrido[2,3-d]pyrimidine-6,3′-pyrrolidine]-2′,7-dione]: the IC50 was determined as 5.53 nM at CDK6-CYCLIND3 and 1.95 nM against CDK4-CYCLIND1.
